According to patent publication US9486422B2, “Small molecule inhibitors of Mcl-1 and the uses of thereof” (THE REGENTS OF THE UNIVERSITY OF MICHIGAN, priority 2011, dated 2016):
Read-outs that look alike come from different tables or passages of the source.

Experiments:
[1] = test system: bone marrow derived cells from patients with multiple myeloma; test: Cellular viability (trypan blue), multiple myeloma patient cells; assay type: cell-based; conditions: Homo sapiens, 0-10 μM, 0-72 hrs
Excerpt: Blood or bone marrow samples from multiple myeloma patients was obtained from treated or untreated patients after informed consent. Plasma cells were obtained after gradient density centrifugation using Ficoll Hypaque. Some samples were purified for C138^+ population using flow cytometry. In all cases, purity of the plasma cells was higher than 90%, as assessed by morphology.
Isolated MM cells were maintained in RPMI 1640 medium supplemented with 10% fetal bovine serum (Hyclone Laboratories, Logan, Utah) and 1% Penicillin-Streptomycin (Invitrogen, Carlsbad, Calif.), at 37° C. in a humidified incubator with 5% CO2. […] The number of viable cells was determined by trypan blue exclusion test with trypan blue (0.4%) purchased from Sigma Chemical Co. (St. Louis, Mo.). All experiments are performed in triplicate and statistical analysis was done using the t test (two tailed) with 95% confidence intervals between treated and untreated samples. P<0.05 was used to indicate statistical significance.

[2] = target: T1, Mcl-1/Bax and Mcl-1/Bak complexes in BxPC-3 cells (Homo sapiens, UniProt Q07820); test: Immunoprecipitation with Mcl-1 antibody, BxPC-3; assay type: cell-based; conditions: 4 μM, 24 h
T1 construct: endogenous in cells; host or cells: BxPC-3
T1 sequence (Q07820 whole entry, one chain of several): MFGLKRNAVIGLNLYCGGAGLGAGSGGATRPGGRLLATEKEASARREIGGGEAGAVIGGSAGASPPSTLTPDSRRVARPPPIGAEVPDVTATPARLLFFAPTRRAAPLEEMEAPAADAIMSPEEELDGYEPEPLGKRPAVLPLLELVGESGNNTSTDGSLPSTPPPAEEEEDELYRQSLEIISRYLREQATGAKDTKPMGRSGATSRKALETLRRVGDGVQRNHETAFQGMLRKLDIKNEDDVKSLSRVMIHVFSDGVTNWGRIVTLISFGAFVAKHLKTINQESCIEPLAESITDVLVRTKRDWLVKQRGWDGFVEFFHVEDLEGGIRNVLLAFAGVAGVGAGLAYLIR
Procedure: Cell lysate (500 μg) were subjected to immunoprecipitation by adding 2.5-5 μg of anti-Mcl-1 antibody and incubation overnight at 4° C. After adding 30 μl of Protein G-agarose (Immunoprecipitation Kit, Sigma) and incubation for 4 h, the samples were centrifuged. The agarose pellet was then washed 7 times, resuspended in Laemmli buffer (Santa Cruz), and boiled for 5 min. Boiled samples were centrifuged, and supernatant was used for Western blot analysis.

[3] = mouse, in vivo, iv, 60 mg/kg
[4] = target: Mcl-1 (Homo sapiens, UniProt Q07820); test: FP-based binding assay, Mcl-1
Chain of Mcl-1 (Q07820 171-327): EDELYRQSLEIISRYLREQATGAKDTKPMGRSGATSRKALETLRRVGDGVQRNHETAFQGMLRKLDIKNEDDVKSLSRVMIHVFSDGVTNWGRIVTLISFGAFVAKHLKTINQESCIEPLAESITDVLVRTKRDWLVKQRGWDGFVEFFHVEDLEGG

[5] = test system: BxPC-3; test: Cell growth inhibition (WST-8), BxPC-3; assay type: cell-based; conditions: Homo sapiens, BXPC-3, 96 h; 4 days treatment
Procedure: Human PC cell lines AsPC-1, BxPC-3 and Capan-2 were cultured in RPMI 1640 medium, while Panc-1 and MiaPaCa were cultured in DMEM medium (Life Technologies), all supplemented with 10% fetal bovine serum (Thermo Scientific HyClone). The rate of cell growth inhibition after treatment with increasing concentrations of the tested compounds was determined by WST-8 assay as described in the manufacturers protocol (Dojindo Molecular Technologies Inc.).

[6] = test system: Bcl-2; test: FP-based binding assay, Bcl-2
[7] = target: T2, Bcl-2 (Homo sapiens, UniProt P10415); test: FP-based binding assay, Bcl-2; conditions: read-out: Bcl-2 Ki ± SD
T2 construct: His-tagged proteins containing; fused on or other part: A 16-residue segment of the flexible loop of Bcl-xL (BCL2L1, Q07817; given as residues 35 to 50) set into the Bcl-2 loop region; His tag with TEV site from the pHis-TEV vector
T2 sequence (P10415 with tags, fused parts or gaps with the stated changes): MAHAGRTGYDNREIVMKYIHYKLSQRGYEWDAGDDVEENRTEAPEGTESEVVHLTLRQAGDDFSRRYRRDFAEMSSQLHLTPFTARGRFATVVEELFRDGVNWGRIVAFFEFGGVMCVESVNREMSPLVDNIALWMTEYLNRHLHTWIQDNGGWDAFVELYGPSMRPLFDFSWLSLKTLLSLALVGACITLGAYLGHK

[8] = target: T3, cellular Mcl-1 protein (2LMP cell lysate) (Homo sapiens, UniProt Q07820); test: Biotin-streptavidin pull-down with biotin-labeled Noxa BH3 peptide; assay type: binding
T3 construct: endogenous in cells; host or cells: 2LMP (subclone of MDA-MB-231) cell lysate
T3 sequence (Q07820 whole entry): as the sequence (Q07820 whole entry, one chain of several) above
Procedure: Human breast cancer 2LMP cells, a subclone of the MDA-MB-231 cell line, were lysed in CHAPS buffer (10 mM HEPES (pH 7.4), 2.5 mM EDTA, 150 mM NaCl, 1.0% CHAP). Pre-cleared cell lysates were incubated with different concentrations of tested compounds, followed by incubation with biotinylated Noxa BH3 peptide (residues 18-43) and streptavidin-agarose beads to pull-down Mcl-1 protein bound to Noxa peptide. Beads were washed with CHAPS buffer, and Mcl-1 protein was eluted by boiling in SDS-PAGE sample buffer and analyzed by Western blotting using Mcl-1 antibody (Santa Cruz). DMSO alone was used as a control for nonspecific pull-down.

[9] = target: Bcl-xL (Homo sapiens, UniProt Q07817, DEL45-85); test: FP-based binding assay, Bcl-xL
Chain of Bcl-xL (Q07817 other isoform, or with tags, fused parts or gaps DEL45-85): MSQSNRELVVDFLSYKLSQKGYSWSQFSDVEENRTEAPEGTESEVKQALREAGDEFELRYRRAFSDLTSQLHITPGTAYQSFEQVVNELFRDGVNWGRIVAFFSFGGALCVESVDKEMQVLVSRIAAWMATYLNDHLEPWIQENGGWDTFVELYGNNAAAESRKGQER

[10] = test system: patient bone marrow derived plasma cells; test: Apoptosis (Annexin V-FITC/PI), multiple myeloma patient cells; assay type: cell-based, human
Procedure: Blood or bone marrow samples from multiple myeloma patients was obtained from treated or untreated patients after informed consent. Plasma cells were obtained after gradient density centrifugation using Ficoll Hypaque. Some samples were purified for […] population using flow cytometry. In all cases, purity of the plasma cells was higher than 90%, as assessed by morphology.
MM cell lines were cultured in six-well plates and treated as described above. At the end of the treatment the cells were washed and resuspended in annexin binding buffer (10 mM 4-(2-hydroxyethyl)-1-piperazineethanesulfonic acid pH 7.4, 140 mM NaCl, 2.5 mM CaCl2) after which Annexin V-FITC and Propodium Iodide solution was added (5 micro L each) according to manufactures protocol (BD Bioscences). Flow cytometry was performed using a FACSCanto (BD Biosciences, San Jose, Calif., USA).

[11] = test system: cytochrome c and Smac release in Panc-1 cells; test: Release of cytochrome c and Smac from mitochondria (Western blot); assay type: cell-based, human; conditions: 24 h treatment
Procedure: The cells were treated and harvested at the indicated time points after treatment. Total cell lysates were subjected to electrophoresis onto SDS-containing 4-20% polyacrylamide gels (Invitrogen), and transferred to polyvinylidene difluoride (PVDF) membranes (Thermo Scientific). Following blocking in 5% milk, membranes were incubated with a specific primary antibody, washed, and incubated with horseradish peroxidase linked secondary antibody (Santa Cruz). The signals were visualized with the chemiluminescent horseradish peroxidase antibody detection reagent (Roche Molecular Biochemicals). Primary antibodies included: caspase-3 (Enzo Life Sciences), Mcl-1 and actin (Santa Cruz), Bcl-xL (BD Transduction Laboratories); Bcl-2, Bax, pro-PARP and cytochrome-c (Cell Signaling), Bak (Calbiochem), and Smac (Abgent).

O=C(O)CSc1cc(NS(=O)(=O)c2ccc(Br)cc2)c2ccccc2c1O [Compound 9, 2-((4-(4-Bromophenylsulfonamido)-1-hydroxynaphthalen-2-yl)thio)acetic acid]
IC50 [1]: 2.5 to 5 µM
inhibition of endogenous interactions of Bax and Bak with Mcl-1 [2]: complete inhibition
histopathology (H&E) of normal tissues [3]: did not cause damage to tested tissues from kidney, liver and pancreas
fold improved binding to Mcl-1 compared to 2 [4]: 7 fold
Ki ([4]; FP and SPR based binding studies, read-out: Ki to Mcl-1): 490 nM
IC50 ([4]; competitive FP, Flu-BID 2 nM, Mcl-1 90 nM, read-out: Mcl-1 IC50 ± SD): 1870 ± 220 nM
Ki ([4]; competitive FP, Ki calculated from IC50, read-out: Mcl-1 Ki ± SD): 490 ± 60 nM
IC50 [5]: 3.4 ± 0.4 µM
fold lower affinity to Bcl-2 than to Mcl-1 (selectivity) [6]: more than 50 fold
Ki [7]: 23.8 ± 1.81 µM
concentration from which BL-Noxa/cellular Mcl-1 interaction is blocked [8]: ≥ 10 µM
disruption of BL-Noxa/cellular Mcl-1 interaction, result in words [8]: effectively disrupted
fold lower affinity to Bcl-xL than to Mcl-1 (selectivity) [9]: more than 50 fold
Ki ([9]; read-out: Bcl-xL Ki ± SD): 33 ± 4.33 µM
apoptotic cells, early event ([10]; Pt 90620372, treated): 10.1%
apoptotic cells, late event ([10]; Pt 90620372, treated): 19.8%
apoptotic cells, early events ([10]; Pt 957034714, treated): 32.9%
apoptotic cells, late events ([10]; Pt 957034714, treated): 62.9%
apoptotic cells, early events ([10]; Pt 957060476, treated): 13.3%
apoptotic cells, late events ([10]; Pt 957060476, treated): 26.6%
concentration from which cytochrome c and Smac are released [11]: ≥ 10 µM
